Laboratory results published in patent US7132420B2, “Aspartic protease inhibitors” (The United States of America as represented by the …, priority 1999, dated 2006).
Read-outs that look alike come from different tables or passages of the source.

Assays:
plasmepsin II = plasmepsin II (Plasmodium falciparum, UniProt P46925); assay: biochemical; assay type: biochemical; settings: Table 2; read-out: Pls II Ki
Description: (§1) The HIV protease assay was done according to the protocol described in Example 35. The plasmepsin II assay was done according to the protocol used in Silva et al., Proc. Nat. Acad. Sci. USA, 93, pp. 10034–10039, September 1996 (Biochemstry). The cathepsin D assay was done according to the protocol described in Gulnik et al., FEBS Letters, 413, 379–384 (1997). The compounds illustrated in Table 2 are of the general formula (II), as described in Example 35.

cathepsin D = cathepsin D (Homo sapiens, UniProt P07339); assay: cathepsin D assay (Ki); assay type: biochemical; settings: Table 2; read-out: Cath D Ki
Sequence of cathepsin D (P07339 65-412): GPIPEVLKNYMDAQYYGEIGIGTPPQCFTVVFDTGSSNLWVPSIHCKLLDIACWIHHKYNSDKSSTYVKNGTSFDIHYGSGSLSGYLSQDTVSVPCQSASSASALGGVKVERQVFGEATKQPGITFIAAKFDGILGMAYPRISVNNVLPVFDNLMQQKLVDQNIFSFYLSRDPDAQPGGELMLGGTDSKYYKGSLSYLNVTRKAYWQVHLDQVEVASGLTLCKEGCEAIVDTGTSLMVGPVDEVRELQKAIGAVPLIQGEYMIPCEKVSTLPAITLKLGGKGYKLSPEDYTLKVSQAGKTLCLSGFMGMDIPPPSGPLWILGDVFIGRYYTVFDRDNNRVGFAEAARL
Description: as §1

HIV-1 protease = HIV-1 protease (Human immunodeficiency virus type 1 group M subtype B, UniProt P04585); assay: HIV protease assay (Ki); assay type: biochemical; settings: for HIV-1 protease % inhibition: Table 1 Ki column
Description: (§2) This example illustrates the HIV-1 protease inhibition activity (Ki), HIV-1 antiviral data (EC50), and the toxicity against normal cells (IC50), for particular compounds of formula (I). The HIV protease assay was done according to the protocol described in Kageyama et al, Antimicrob. Agents Chemother., 37, 272 (1993). The HIV antiviral assay was done according to the protocol described in Weislow et al., J. National Cancer Inst. 81, 577 (1989).
as §1

normal cells = assay: toxicity against normal cells (IC50); assay type: cell-based; settings: Table 1
Description: as §2

HIV-1 = assay: HIV antiviral assay (EC50); assay type: cell-based
Description: The HIV protease assay was done according to the protocol described in Kageyama et al, Antimicrob. Agents Chemother., 37, 272 (1993). The HIV antiviral assay was done according to the protocol described in Weislow et al., J. National Cancer Inst. 81, 577 (1989).

[1] = Table 1, in nM, read-out: HIV-1 Ki
[2] = Human immunodeficiency virus 1, Table 1

Sequence of plasmepsin II (P46925 125-453): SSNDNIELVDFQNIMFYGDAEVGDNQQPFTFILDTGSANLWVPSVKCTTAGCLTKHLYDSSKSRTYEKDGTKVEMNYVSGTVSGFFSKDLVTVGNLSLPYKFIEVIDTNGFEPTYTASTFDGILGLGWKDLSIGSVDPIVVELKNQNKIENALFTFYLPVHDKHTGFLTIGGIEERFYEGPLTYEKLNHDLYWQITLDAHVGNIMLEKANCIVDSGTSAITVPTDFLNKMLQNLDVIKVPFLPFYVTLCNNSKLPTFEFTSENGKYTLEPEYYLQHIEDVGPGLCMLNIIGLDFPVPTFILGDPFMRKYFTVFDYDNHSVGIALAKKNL

Row | SMILES | IC50 (normal cells) [nM] | EC50 (HIV-1; Table 1) [nM] | Ki (HIV-1 protease; Table 1, read-out: HIV-1 Ki) [nM] | other results
1 | Cc1cccc(C)c1OCC(=O)N[C@@H](Cc1ccccc1)[C@@H](O)C[C@H](CC(C)C)NC(=O)OC(C)(C)C [(15), (2S,3S,5S)-5-[N-tert-butyloxycarbonylamino]-2-[N-[2-(2,6-dimethylphenoxy)acetyl]amino]-3-hydroxy-7-methyl-1-phenyloctane] |  |  |  | Ki (plasmepsin II): 210 nM; Ki (cathepsin D): 6.1 nM; Ki (HIV-1 protease): 0.009 nM; Ki (HIV-1 protease; read-out: HIV-1 Ki, Table 2): 0.009 nM
2 | CC(C)C[C@@H](C[C@H](O)[C@H](Cc1ccccc1)NC(=O)OCc1ccccc1)NC(=O)[C@H](C(C)C)N1CCCNC1=O [(18)] | > 100000 | 600 | 0.065 ± 0.016 | 
3 | Cc1cccc(C)c1OCC(=O)N[C@@H](Cc1ccccc1)[C@@H](O)C[C@H](CC(C)C)NC(=O)N1CCOCC1 [(27)] |  | > 50000 |  | Ki (plasmepsin II): 76 nM; Ki (cathepsin D): 6.1 nM; EC50 (HIV-1; Table 2): > 50000 nM; Ki (HIV-1 protease; [1]): 37 nM; Ki (HIV-1 protease; Table 2, read-out: HIV-1 Ki): 0.37 nM
4 | CC(C)C[C@@H](C[C@H](O)[C@H](Cc1ccccc1)NC(=O)OCc1ccccc1)NC(=O)[C@@H](C(C)C)N1CCCNC1=O [(33)] |  |  |  | HIV-1 protease % inhibition (HIV-1 protease; @0.5 μM): 38%; HIV-1 protease % inhibition (HIV-1 protease; @1 μM): 65%
5 | CC(C)C[C@@H](C[C@H](O)[C@H](Cc1ccccc1)NC(=O)N1CCOCC1)NC(=O)[C@H](C(C)C)N1CCCNC1=O [(36)] | > 100000 | 2000 | 0.571 | 
6 | Cc1c(O)cccc1C(=O)N[C@@H](Cc1ccccc1)[C@@H](O)C[C@H](CC(C)C)NC(=O)[C@H](C(C)C)N1CCCNC1=O [(37), (2S,3S,5S)-2-[N-(3-hydroxy-2-methylbenzoyl)amino]-5-[N-[[3-methyl-2S-(2-oxo-tetrahydropyrimidin-1-yl)]butyryl]amino]-3-hydroxy-7-methyl-1-phenyloctane] | > 10000 | 200 | 0.104 ± 0.01 | 
7 | Cc1cccc(C)c1OCC(=O)N[C@@H](CC(C)C)C[C@H](O)[C@H](Cc1ccccc1)NC(=O)OCc1ccccc1 [(40), (2S,3S,5S)-2-[N-(benzyloxycarbonyl)amino]-5-[N-[2-(2,6-dimethylphenoxy)acetyl]amino]-3-hydroxy-7-methyl-1-phenyloctane] |  |  | 0.197 | HIV-1 EC50 (μM) (HIV-1; Table 1): inactive
8 | Cc1cccc(C)c1OCC(=O)N[C@@H](CC(C)C)C[C@H](O)[C@H](Cc1ccccc1)NC(=O)O[C@H]1CCOC1 [(41), (2S,3S,5S)-5-[N-[2-(2,6-dimethylphenoxy)acetyl]amino]-2-[N-(3S-terahydrofuranyloxycarbonyl]amino]-3-hydroxy-7-methyl-1-phenyloctane] | > 100000 | > 1000 | 0.222 | 
9 | Cc1cccc(C)c1OCC(=O)N[C@@H](CC(C)C)C[C@H](O)[C@H](Cc1ccccc1)NC(=O)c1cccc(O)c1C [(42), (2S,3S,5S)-5-[N-[2-(2,6-dimethylphenoxy)acetyl]amino]-2-[N-(3-hydroxy-2-methylbenzoyl)amino]-3-hydroxy-7-methyl-1-phenyloctane] | > 100000 |  |  | EC50 (HIV-1; [2]): 750 nM; Ki (HIV-1 protease): 0.311 nM
10 | CC(C)CC(CC(O)C(Cc1ccccc1)NC(=O)C(C(C)C)N1CCCNC1=O)NC(=O)OC(C)(C)C (stereo not drawn) [(44)] |  |  | 1.49 | HIV-1 EC50 (μM) (HIV-1; Table 1): in-active
11 | Cc1cccc(C)c1OCC(=O)N[C@@H](Cc1ccccc1)[C@@H](O)C[C@H](CC(C)C)NC(=O)C1CCCN(C(=O)OCc2ccccc2)C1 (stereo partly drawn) [(47)] |  |  | 1.5 ± 0.066 | 
12 | Cc1cccc(C)c1OCC(=O)N[C@@H](Cc1ccccc1)[C@@H](O)C[C@H](CC(C)C)NC(=O)C1CCN(C(=O)OCc2ccccc2)CC1 [(48)] |  |  |  | Ki (HIV-1 protease; [1]): 113 nM
13 | Cc1cccc(C)c1OCC(=O)N[C@@H](Cc1ccccc1)[C@@H](O)C[C@H](CC(C)C)NC(=O)[C@@H](N)C(C)C [(49)] | > 100000 | 8000 |  | Ki (HIV-1 protease; [1]): 4 nM
14 | CC(=O)N[C@H](C(=O)N[C@@H](CC(C)C)C[C@H](O)[C@H](Cc1ccccc1)NC(=O)COc1c(C)cccc1C)C(C)C [(50)] | > 100000 | 300 | 0.014 | 
15 | Cc1cccc(C)c1OCC(=O)N[C@@H](Cc1ccccc1)[C@@H](O)C[C@H](CC(C)C)NC(=O)[C@@H](NS(C)(=O)=O)C(C)C [(51), (2S,3S,5S)-2-[N-[2-(2,6-dimethylphenoxy)acetyl]amino]-5-[N-[[N′-(methylsulfonyl)]valinyl]amino]-3-hydroxy-7-methyl-1-phenyloctane] | > 100000 | 700 | 0.034 | 
16 | COc1ccc(C(=O)N[C@H](C(=O)N[C@@H](CC(C)C)C[C@H](O)[C@H](Cc2ccccc2)NC(=O)COc2c(C)cccc2C)C(C)C)cc1 [(52), (2S,3S,5S)-2-[N-[2-(2,6.-dimethylphenoxy)acetyl]amino]-5-[N-[[N′-(p-methoxyphenylcarbonyl)]valinyl]amino]-3-hydroxy-7-methyl-1-phenyloctane] | > 93000 | 200 | 0.03 | 
17 | CC(C)(C)OC(=O)N[C@@H](Cc1ccccc1)C[C@H](O)[C@H](Cc1ccccc1)NC(=O)OCc1ccccc1 [(53), reference compound] | > 100000 | > 10000 |  | Ki (HIV-1 protease; [1]): 1 nM
18 | COc1ccc(S(=O)(=O)N[C@H](C(=O)N[C@@H](CC(C)C)C[C@H](O)[C@H](Cc2ccccc2)NC(=O)COc2c(C)cccc2C)C(C)C)cc1 [(54)] | 84000 | 200 | 0.0068 | 
19 | Cc1cccc(C)c1OCC(=O)N[C@@H](Cc1ccccc1)[C@@H](O)C[C@H](CC(C)C)NC(=O)CC(C)C [(55)] | > 100000 | 10000 |  | Ki (HIV-1 protease; [1]): 1.5 nM
20 | Cc1cccc(C)c1OCC(=O)N[C@@H](Cc1ccccc1)[C@@H](O)C[C@H](CC(C)C)NC(=O)[C@H](C)NC(=O)OCc1ccccc1 [(56), (2S,3S,5S)-5-[N-[N′-(benzyloxycarbonyl)alaninyl]amino]-2-[N-[2-(2,6-dimethylphenoxy)acetyl]amino]-3-hydroxy-7-methyl-1-phenyloctane] | > 100000 | 1000 | 0.195 | 
21 | Cc1cccc(C)c1OCC(=O)N[C@@H](Cc1ccccc1)[C@@H](O)C[C@H](CC(C)C)NC(=O)OCc1cncs1 [(57), (2S,3S,5S)-2-[N-[2-(2,6-dimethylphenoxy)acetyl]amino]-5-[N-[(thiazol-5-yl-methoxy)carbonyl]amino]-3-hydroxy-7-methyl-1-phenyloctane] | 10000 |  |  | EC50 (HIV-1; [2]): 1000 nM; Ki (HIV-1 protease): 0.094 nM
22 | Cc1cccc(C)c1OCC(=O)N[C@@H](Cc1ccccc1)[C@@H](O)C[C@H](CC(C)C)NC(=O)c1cccc(O)c1 [(58)] | 10000 | 2000 |  | Ki (HIV-1 protease; [1]): 1.2 nM
23 | CC(C)C[C@@H](C[C@H](O)[C@H](Cc1ccccc1)NC(=O)CNC(=O)OCc1ccccc1)NC(=O)c1cccc(O)c1 [(59)] |  | > 10000 |  | Ki (HIV-1 protease; [1]): 108 nM
24 | CC(C)C[C@@H](C[C@H](O)[C@H](Cc1ccccc1)NC(=O)[C@H](C)NC(=O)OCc1ccccc1)NC(=O)c1cccc(O)c1 [(61)] |  | > 10000 |  | Ki (HIV-1 protease; [1]): 2 nM
25 | CC[C@H](C)[C@H](NC(=O)OCc1ccccc1)C(=O)N[C@@H](Cc1ccccc1)[C@@H](O)C[C@H](CC(C)C)NC(=O)c1cccc(O)c1 [(62)] | > 10000 | 1400 | 0.157 | Ki (plasmepsin II): 1.2 nM; Ki (HIV-1 protease; Table 2, read-out: HIV-1 Ki): 0.157 nM
26 | Cc1cccc(C)c1OCC(=O)N[C@@H](Cc1ccccc1)[C@@H](O)C[C@H](CC(C)C)NC(=O)[C@H](CC(N)=O)NC(=O)c1ccc2ccccc2n1 [(65)] |  |  | 0.0382 | 
27 | CC(C)C[C@@H](C[C@H](O)[C@H](Cc1ccccc1)NC(=O)[C@H](Cc1ccccc1)NC(=O)OCc1ccccc1)NC(=O)c1cccc(O)c1 [(67)] |  |  |  | Ki (plasmepsin II): 17 nM; HIV-1 EC50 (μM) (HIV-1; Table 1): not active
28 | Cc1cccc(C)c1OCC(=O)NC(Cc1ccccc1)C(O)CC(CC(C)C)NC(=O)C(C(C)C)N1CCCN(C)C1=O (stereo not drawn) [(68)] | 5000 |  |  | 
29 | CC(C)C[C@@H](C[C@H](O)[C@H](Cc1ccccc1)NC(=O)[C@@H](NC(=O)OCc1ccccc1)C(C)C)NC(=O)c1cccc(O)c1 [Compound (60)] | > 10000 | 910 | 0.198 | Ki (plasmepsin II): 2.4 nM; Ki (HIV-1 protease; Table 2, read-out: HIV-1 Ki): 0.198 nM
